Drawing on the OligoGym collection, this text covers remaining target (mRNA or protein) (fraction of control) for 60 sequences.

This data set has as its target SRA1. The following applies: ASO.

These antisense oligonucleotides have a phosphorothioate backbone; sugars and methylation of C are not fully specified.
Note: test concentration or dose not given here.

For the sequence AACTGCGGCGGGTCGTTC, the remaining target (mRNA or protein) (fraction of control) was ≥ 1.

Sequence AACTTTCCTCCAGCCCAC gave a remaining target (mRNA or protein) (fraction of control) of 0.21.

With AAGGAGGTGGAGGCCCCA, the remaining target (mRNA or protein) (fraction of control) worked out at 0.72.

Take ACACATGAACTCCCTCTG: the remaining target (mRNA or protein) (fraction of control) is 0.77.

ACATACCTGCTTCCTTGT: the remaining target (mRNA or protein) (fraction of control) is ≥ 1.

Turning to ACATGGTCAACCATGAGG, the remaining target (mRNA or protein) (fraction of control) worked out at 0.54.

Consider ACCACTCCCCACAGGTGG, for which the remaining target (mRNA or protein) (fraction of control) is ≥ 1.

As to ACCATCCACTGACTGACC, the remaining target (mRNA or protein) (fraction of control) was ≥ 1.

In the case of ACCCTCTTGGTAAGCAGC, the remaining target (mRNA or protein) (fraction of control) was ≥ 1.

With ACCTGCTTCCTTGTGTGG, the remaining target (mRNA or protein) (fraction of control) is 0.32.

ACGCCAGAGGCAGGACCA had a remaining target (mRNA or protein) (fraction of control) of 0.55.

For the sequence ACTGGGAAACTTGTGGGC, the remaining target (mRNA or protein) (fraction of control) was ≥ 1.

With AGAGGCAGGACCACTCCC, the remaining target (mRNA or protein) (fraction of control) was 0.92.

The sequence AGCGGTGGATGTCATCTG gave a remaining target (mRNA or protein) (fraction of control) of 0.65.

Regarding AGGCCCAGGAGAAGTCTC, the remaining target (mRNA or protein) (fraction of control) came to 0.61.

Take AGTCGAGCCTCAGACTCG: the remaining target (mRNA or protein) (fraction of control) amounted to 0.72.

For ATCCTCCATCAGTCGAGC, the remaining target (mRNA or protein) (fraction of control) is ≥ 1.

The sequence ATCTGCTGCGTCCCACCG showed a remaining target (mRNA or protein) (fraction of control) of 0.9.

Take ATGAGGGAGCGGTGGATG: the remaining target (mRNA or protein) (fraction of control) was ≥ 1.

With ATGCATGTTATGAGTAAC, the remaining target (mRNA or protein) (fraction of control) is ≥ 1.

As to ATTTGAGGAGATGGTGTC, the remaining target (mRNA or protein) (fraction of control) amounted to 0.94.

Turning to CAACTTTCCTCCAGCCCA, the remaining target (mRNA or protein) (fraction of control) is 0.41.

As to CAATGCCTGTTCCAAAGG, the remaining target (mRNA or protein) (fraction of control) stood at 0.91.

As for CAGAGGTTTGCAGATACA, the remaining target (mRNA or protein) (fraction of control) is 0.35.

Sequence CAGCACATCCTCCATCAG gave a remaining target (mRNA or protein) (fraction of control) of 0.61.

Turning to CAGGGAGCAGGGCAGTCG, the remaining target (mRNA or protein) (fraction of control) is 0.35.

CAGTGCCAGGCGTCGGCT displayed a remaining target (mRNA or protein) (fraction of control) of 0.66.

With CATCACATACCTGCTTCC, the remaining target (mRNA or protein) (fraction of control) stood at 0.68.

CATCCAAACACAGCTGCT gave a remaining target (mRNA or protein) (fraction of control) of 0.39.

For CATGGTCAACCATGAGGG, the remaining target (mRNA or protein) (fraction of control) is ≥ 1.

On to CCACCGGTGGCTTGAAAG, for which the remaining target (mRNA or protein) (fraction of control) was determined as 0.85.

As to CCAGCAGATCCCTTCCTG, the remaining target (mRNA or protein) (fraction of control) was ≥ 1.

For CCAGCCGCGTTCCTTGTT, the remaining target (mRNA or protein) (fraction of control) was 0.69.

Regarding CCAGTAGAGCCATTCTCT, the remaining target (mRNA or protein) (fraction of control) was 0.83.

Sequence CCATTCTCTTCTTTACAG displayed a remaining target (mRNA or protein) (fraction of control) of 0.6.

Take CCCCACTCAATGTGGTTC: the remaining target (mRNA or protein) (fraction of control) worked out at 0.31.

Sequence CCCGGCTTCACGTACAGC had a remaining target (mRNA or protein) (fraction of control) of 0.63.

Take CCGCGTTCCTTGTTGCCG: the remaining target (mRNA or protein) (fraction of control) came to 0.94.

CCTCTGAAAACAGACTCC gave a remaining target (mRNA or protein) (fraction of control) of 0.71.

Turning to CCTGCTGGAAGCCTGGTA, the remaining target (mRNA or protein) (fraction of control) was ≥ 1.

On to CCTGCTTCCTTGTGTGGC, for which the remaining target (mRNA or protein) (fraction of control) worked out at 0.66.

CCTGGGTCCGCCGGCCTG: the remaining target (mRNA or protein) (fraction of control) is 0.86.

On to CCTTGTGTGGCCACGGCA, for which the remaining target (mRNA or protein) (fraction of control) stood at 0.43.

As for CGAGCGCCTGGGTCCGCC, the remaining target (mRNA or protein) (fraction of control) turned out to be 0.48.

As for CGGCAGTCTTCCAATGCC, the remaining target (mRNA or protein) (fraction of control) is ≥ 1.

CGTATGAGAACTGCGGCG: the remaining target (mRNA or protein) (fraction of control) was ≥ 1.

Sequence CGTCGGCTGATGTCATCA displayed a remaining target (mRNA or protein) (fraction of control) of 0.61.

As for CTCAGCTGTGGCTGCAGA, the remaining target (mRNA or protein) (fraction of control) is ≥ 1.

In the case of CTCCAGCCCACTGTTCCT, the remaining target (mRNA or protein) (fraction of control) was ≥ 1.

For the sequence CTCCATCAGTCGAGCCTC, the remaining target (mRNA or protein) (fraction of control) was ≥ 1.

Sequence CTCCTACCATCCACTGAC gave a remaining target (mRNA or protein) (fraction of control) of 0.46.

CTCGACTGGGAAACTTGT had a remaining target (mRNA or protein) (fraction of control) of 0.63.

Take CTCTGGCCCAGGTGGGAC: the remaining target (mRNA or protein) (fraction of control) is 0.55.

The sequence CTGAAAACAGACTCCTCT displayed a remaining target (mRNA or protein) (fraction of control) of 0.56.

Turning to CTGACCTCAGTCACATGG, the remaining target (mRNA or protein) (fraction of control) was ≥ 1.

As to CTGCTGCGTCCCACCGGT, the remaining target (mRNA or protein) (fraction of control) is 0.21.

As to CTGCTGGAAGCCTGGTAT, the remaining target (mRNA or protein) (fraction of control) worked out at 0.77.

CTTCATTGGCTGCCTCCT came in with a remaining target (mRNA or protein) (fraction of control) of 0.2.

Take CTTCCCTCATAGGTGGGT: the remaining target (mRNA or protein) (fraction of control) was ≥ 1.

CTTTCCTCCAGCCCACTG: the remaining target (mRNA or protein) (fraction of control) was found to be 0.36.
